Consider 2 compounds from patent US6570018B2 (Pfizer Inc, priority 2000, dated 2003).

Structures can show the parent of a compound that is named as a salt.

Series [1] is described as follows: stability of crystalline form versus the anhydrous mesylate salt. Particulars: compared with the anhydrous mesylate salt. It is filed as physicochemical.

As to `C[C@@H]([C@@H](O)c1ccc(O)cc1)N1CCC(O)(c2ccccc2)CC1` [mesylate salt trihydrate, (1S,2S)-1-(4-Hydroxyphenyl)-2-(4-hydroxy-4-phenylpiperidino)-1-propanol, Methanesulfonate Salt Trihydrate], in series [1], the “stability of crystalline form / shelf life” value is reported as “more stable crystalline form than the anhydrous mesylate salt”.

In the case of `C[C@@H](C(=O)c1ccc(OCc2ccccc2)cc1)N1CCC(O)(c2ccccc2)CC1`, the melting point (as a rule, the temperature, or range, at which the solid turns liquid) was in the range of 102.5 to 103.8 °C.
